Test results from paper PMC7855981, “Rho-Kinase 1/2 Inhibition Prevents Transforming Growth Factor-β-Induced Effects on Pulmonary Remodeling and Repair” (Frontiers in Pharmacology, 2021).

Columns and labels:
ROCK1 [1] = target: T1, ROCK1 (Homo sapiens, UniProt Q13464); assay: ADP-Glo kinase assay with […] ATP; format: biochemical
T1 construct: GST-tagged 1–535 human ROCK1

ROCK2 [2] = target: T2, ROCK2 (Homo sapiens, UniProt O75116); assay: ADP-Glo kinase assay with […] ATP; also KINOMEscan competition at […] ([…] vs CTRL); format: biochemical
T2 construct: GST-tagged 1–552 human ROCK2
T2 sequence (O75116 1-552): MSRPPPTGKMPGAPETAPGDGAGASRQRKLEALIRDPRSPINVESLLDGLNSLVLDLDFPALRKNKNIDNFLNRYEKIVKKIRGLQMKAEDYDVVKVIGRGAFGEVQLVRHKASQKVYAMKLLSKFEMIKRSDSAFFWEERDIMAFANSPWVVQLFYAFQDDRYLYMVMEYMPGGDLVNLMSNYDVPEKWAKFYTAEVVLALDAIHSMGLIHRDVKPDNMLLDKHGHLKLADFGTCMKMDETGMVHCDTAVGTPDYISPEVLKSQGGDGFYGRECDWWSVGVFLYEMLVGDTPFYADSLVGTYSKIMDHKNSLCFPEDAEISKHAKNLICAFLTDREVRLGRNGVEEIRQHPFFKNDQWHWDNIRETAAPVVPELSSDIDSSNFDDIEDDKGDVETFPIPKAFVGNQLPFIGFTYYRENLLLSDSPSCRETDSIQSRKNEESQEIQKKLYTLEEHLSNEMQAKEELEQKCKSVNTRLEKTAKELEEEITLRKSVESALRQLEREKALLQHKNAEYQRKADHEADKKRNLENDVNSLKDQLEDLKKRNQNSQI

VRK2 = VRK2 (Homo sapiens, UniProt Q86Y07); assay: KINOMEscan competition binding, single concentration […] ([…] of control); conditions: read-out: % CTRL at 100 nM
VRK2, sequence (Q86Y07 whole entry): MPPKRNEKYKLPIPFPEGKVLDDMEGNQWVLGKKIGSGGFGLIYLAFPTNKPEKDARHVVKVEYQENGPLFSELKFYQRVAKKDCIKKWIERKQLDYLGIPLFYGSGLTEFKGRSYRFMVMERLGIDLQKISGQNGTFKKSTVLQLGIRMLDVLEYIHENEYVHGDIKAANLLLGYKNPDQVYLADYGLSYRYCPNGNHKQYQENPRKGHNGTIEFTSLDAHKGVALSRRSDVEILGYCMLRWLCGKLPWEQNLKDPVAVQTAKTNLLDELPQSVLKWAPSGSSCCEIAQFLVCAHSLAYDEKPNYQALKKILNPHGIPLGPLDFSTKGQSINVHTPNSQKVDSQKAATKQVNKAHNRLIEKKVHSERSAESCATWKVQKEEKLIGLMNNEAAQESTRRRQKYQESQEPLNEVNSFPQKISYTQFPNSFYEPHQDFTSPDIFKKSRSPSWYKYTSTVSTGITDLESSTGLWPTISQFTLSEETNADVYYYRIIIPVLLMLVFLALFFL

ROCK1 [3] = target: T1, ROCK1; assay: ADP-Glo kinase assay with […] ATP; also KINOMEscan competition at […] ([…] CTRL); format: biochemical
ROCK2 [4] = target: T2, ROCK2; assay: as above; format: biochemical

T1 sequence (Q13464 1-535): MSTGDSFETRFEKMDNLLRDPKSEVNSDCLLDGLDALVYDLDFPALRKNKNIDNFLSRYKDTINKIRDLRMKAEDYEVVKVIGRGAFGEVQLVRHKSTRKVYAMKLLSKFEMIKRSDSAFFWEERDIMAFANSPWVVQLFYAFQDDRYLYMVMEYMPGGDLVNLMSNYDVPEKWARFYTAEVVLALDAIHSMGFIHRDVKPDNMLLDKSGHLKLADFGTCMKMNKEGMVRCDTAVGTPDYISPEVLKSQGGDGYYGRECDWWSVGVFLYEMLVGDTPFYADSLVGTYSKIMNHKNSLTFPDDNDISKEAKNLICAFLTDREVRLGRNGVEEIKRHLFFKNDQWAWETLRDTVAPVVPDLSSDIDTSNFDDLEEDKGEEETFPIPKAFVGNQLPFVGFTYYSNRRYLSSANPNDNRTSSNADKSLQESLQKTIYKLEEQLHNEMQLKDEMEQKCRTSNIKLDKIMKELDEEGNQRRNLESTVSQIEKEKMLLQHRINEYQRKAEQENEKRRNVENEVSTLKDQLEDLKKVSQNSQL

Row | IC50 (ROCK1 [1]) [nM] | IC50 (ROCK2 [2]) [nM] | remaining binding at 0.1 µM (VRK2) [%] | IC50 (ROCK1 [3]) [nM] | IC50 (ROCK2 [4]) [nM] | SMILES
1 | 341 ± 38 | 6.1 ± 1.4 |  |  |  | Cn1cc(C(=O)Nc2cccc(-c3nnc(Nc4ccc5[nH]ncc5c4Cl)s3)c2)cn1 [A11, N-(3-(5-((4-chloro-1H-indazol-5-yl)amino)-1,3,4-thiadiazol-2-yl)phenyl)-1-methyl-1H-pyrazole-4-carboxamide]
2 |  |  | 9.3 | 2.9 ± 0.5 | 4 ± 0.6 | CCCN[C@H]1CCc2nc(NC(=O)c3cccc([C@@H](C)NC(=O)c4ccc(OC)c(OC)c4)c3)sc2C1 [compound 31, 3,4-dimethoxy-N-((R)-1-(3 - (((S) - 6 - (propylamino) - 4,5,6, 7 tetrahydrobenzo [d]thiazol-2-yl)carbamoyl)phenyl)ethyl) benzamide]
